# Experimental data from PubChem BioAssay AID1745844 (Carcinogenic Potency Database (CPDB), 2022).
# Test system: rodent lifetime carcinogenesis bioassay, tumor incidence TD50
# Assay: chronic cancer bioassays in animals – CPDB, compiled studies (AID 1745844)
# Conditions: in feed, study length 104 weeks
smiles,measurement,setting,value
COc1ccccc1[N+](=O)[O-],TD50,"mouse, strain B6C3F1, females, site: all sites, lesion: malignant lymphoma, histiocytic type + malignant lymphoma, mixed type + malignant lymphoma, lymphocytic type + malignant lymph, dosed 103 weeks",153 mg/kg/day
same,TD50,"mouse, strain B6C3F1, females, site: any site (literature study), lesion: several types, types named in the paper, dosed 103 weeks",350 mg/kg/day
same,TD50,"mouse, strain B6C3F1, females, site: liver, lesion: hepatocellular adenoma + hepatoblastoma + hepatocellular carcinoma, dosed 103 weeks",194 mg/kg/day
same,TD50,"mouse, strain B6C3F1, females, site: liver, lesion: hepatocellular adenoma + hepatocellular carcinoma, dosed 103 weeks",194 mg/kg/day
same,TD50,"mouse, strain B6C3F1, females, site: liver, lesion: hepatocellular adenoma, dosed 103 weeks",179 mg/kg/day
same,TD50,"mouse, strain B6C3F1, males, site: any site (literature study), lesion: several types, types named in the paper, dosed 103 weeks",43500 mg/kg/day
same,TD50,"mouse, strain B6C3F1, males, site: liver, lesion: hepatoblastoma + hepatocellular carcinoma, dosed 103 weeks",391 mg/kg/day
same,TD50,"mouse, strain B6C3F1, males, site: liver, lesion: hepatoblastoma, dosed 103 weeks",428 mg/kg/day
same,TD50,"mouse, strain B6C3F1, males, site: liver, lesion: hepatocellular adenoma + hepatoblastoma + hepatocellular carcinoma, dosed 103 weeks",198 mg/kg/day
same,TD50,"mouse, strain B6C3F1, males, site: liver, lesion: hepatocellular adenoma + hepatocellular carcinoma, dosed 103 weeks",208 mg/kg/day
same,TD50,"mouse, strain B6C3F1, males, site: liver, lesion: hepatocellular adenoma, dosed 103 weeks",177 mg/kg/day
same,TD50,"rat, strain Fischer 344, females, site: all sites, lesion: mononuclear-cell leukemia, dosed 103 weeks",152 mg/kg/day
same,TD50,"rat, strain Fischer 344, females, site: any site (literature study), lesion: several types, types named in the paper, dosed 27 weeks",10.7 mg/kg/day
same,TD50,"rat, strain Fischer 344, females, site: any site (literature study), lesion: several types, types named in the paper, dosed 103 weeks",336 mg/kg/day
same,TD50,"rat, strain Fischer 344, females, site: colon, lesion: adenomatous polyp, dosed 27 weeks",60.9 mg/kg/day
same,TD50,"rat, strain Fischer 344, females, site: colon, lesion: carcinoma, dosed 27 weeks",1300 mg/kg/day
same,TD50,"rat, strain Fischer 344, females, site: forestomach, lesion: squamous-cell carcinoma + squamous-cell papilloma, dosed 103 weeks",1270 mg/kg/day
same,TD50,"rat, strain Fischer 344, females, site: forestomach, lesion: squamous-cell papilloma, dosed 103 weeks",3270 mg/kg/day
same,TD50,"rat, strain Fischer 344, females, site: kidney + large intestine + urinary bladder, lesion: transitional-cell carcinoma + transitional-cell papilloma + adenomatous polyp + carcinoma + sarcoma + squamous-cell carcinoma + squa, dosed 27 weeks",12.9 mg/kg/day
same,TD50,"rat, strain Fischer 344, females, site: kidney, lesion: transitional-cell carcinoma + transitional-cell papilloma, dosed 27 weeks",1240 mg/kg/day
same,TD50,"rat, strain Fischer 344, females, site: kidney, lesion: transitional-cell carcinoma, dosed 27 weeks",3550 mg/kg/day
same,TD50,"rat, strain Fischer 344, females, site: kidney, lesion: transitional-cell papilloma, dosed 27 weeks",1890 mg/kg/day
same,TD50,"rat, strain Fischer 344, females, site: large intestine, lesion: adenomatous polyp + carcinoma, dosed 27 weeks",55 mg/kg/day
same,TD50,"rat, strain Fischer 344, females, site: large intestine, lesion: adenomatous polyp, dosed 27 weeks",55 mg/kg/day
same,TD50,"rat, strain Fischer 344, females, site: large intestine, lesion: carcinoma, dosed 27 weeks",1300 mg/kg/day
same,TD50,"rat, strain Fischer 344, females, site: liver, lesion: hepatocellular adenoma + hepatoblastoma + hepatocellular carcinoma, dosed 103 weeks",1010 mg/kg/day
same,TD50,"rat, strain Fischer 344, females, site: liver, lesion: hepatocellular adenoma, dosed 103 weeks",1010 mg/kg/day
same,TD50,"rat, strain Fischer 344, females, site: lung, lesion: alveolar/bronchiolar adenoma, dosed 103 weeks",666 mg/kg/day
same,TD50,"rat, strain Fischer 344, females, site: rectum, lesion: adenomatous polyp, dosed 27 weeks",560 mg/kg/day
same,TD50,"rat, strain Fischer 344, females, site: urinary bladder, lesion: sarcoma, dosed 27 weeks",192 mg/kg/day
same,TD50,"rat, strain Fischer 344, females, site: urinary bladder, lesion: squamous-cell carcinoma + squamous-cell papilloma, dosed 27 weeks",588 mg/kg/day
same,TD50,"rat, strain Fischer 344, females, site: urinary bladder, lesion: squamous-cell carcinoma, dosed 27 weeks",2700 mg/kg/day
same,TD50,"rat, strain Fischer 344, females, site: urinary bladder, lesion: squamous-cell papilloma, dosed 27 weeks",751 mg/kg/day
same,TD50,"rat, strain Fischer 344, females, site: urinary bladder, lesion: transitional-cell carcinoma + transitional-cell papilloma, dosed 27 weeks",13 mg/kg/day
same,TD50,"rat, strain Fischer 344, females, site: urinary bladder, lesion: transitional-cell carcinoma, dosed 27 weeks",13.2 mg/kg/day
same,TD50,"rat, strain Fischer 344, females, site: urinary bladder, lesion: transitional-cell papilloma, dosed 27 weeks",543 mg/kg/day
same,TD50,"rat, strain Fischer 344, males, site: adrenal medulla, lesion: pheochromocytoma benign, bilateral + pheochromocytoma, benign, dosed 103 weeks",89.6 mg/kg/day
same,TD50,"rat, strain Fischer 344, males, site: adrenal medulla, lesion: pheochromocytoma benign, bilateral + pheochromocytoma, malignant + pheochromocytoma, benign, dosed 103 weeks",109 mg/kg/day
same,TD50,"rat, strain Fischer 344, males, site: all sites, lesion: mononuclear-cell leukemia, dosed 103 weeks",25.9 mg/kg/day
same,TD50,"rat, strain Fischer 344, males, site: any site (literature study), lesion: several types, types named in the paper, dosed 27 weeks",3.97 mg/kg/day
same,TD50,"rat, strain Fischer 344, males, site: any site (literature study), lesion: several types, types named in the paper, dosed 103 weeks",21.4 mg/kg/day
same,TD50,"rat, strain Fischer 344, males, site: cecum, lesion: adenomatous polyp, dosed 27 weeks",21.3 mg/kg/day
same,TD50,"rat, strain Fischer 344, males, site: colon, lesion: adenomatous polyp, dosed 27 weeks",17.2 mg/kg/day
same,TD50,"rat, strain Fischer 344, males, site: colon, lesion: carcinoma, dosed 27 weeks",573 mg/kg/day
same,TD50,"rat, strain Fischer 344, males, site: forestomach, lesion: squamous-cell carcinoma + squamous-cell papilloma, dosed 103 weeks",304 mg/kg/day
same,TD50,"rat, strain Fischer 344, males, site: forestomach, lesion: squamous-cell carcinoma, dosed 103 weeks",715 mg/kg/day
same,TD50,"rat, strain Fischer 344, males, site: forestomach, lesion: squamous-cell papilloma, dosed 103 weeks",543 mg/kg/day
same,TD50,"rat, strain Fischer 344, males, site: kidney + large intestine + urinary bladder, lesion: transitional-cell carcinoma + transitional-cell papilloma + adenomatous polyp + carcinoma + sarcoma + squamous-cell carcinoma + squa, dosed 27 weeks",7.47 mg/kg/day
same,TD50,"rat, strain Fischer 344, males, site: kidney, lesion: transitional-cell carcinoma + transitional-cell papilloma, dosed 27 weeks",83.6 mg/kg/day
same,TD50,"rat, strain Fischer 344, males, site: kidney, lesion: transitional-cell carcinoma, dosed 27 weeks",90.9 mg/kg/day
same,TD50,"rat, strain Fischer 344, males, site: kidney, lesion: transitional-cell papilloma, dosed 27 weeks",1040 mg/kg/day
same,TD50,"rat, strain Fischer 344, males, site: kidney, lesion: tubule adenoma + tubule carcinoma, dosed 103 weeks",251 mg/kg/day
same,TD50,"rat, strain Fischer 344, males, site: kidney, lesion: tubule adenoma, dosed 103 weeks",435 mg/kg/day
same,TD50,"rat, strain Fischer 344, males, site: kidney, lesion: tubule carcinoma, dosed 103 weeks",612 mg/kg/day
same,TD50,"rat, strain Fischer 344, males, site: large intestine, lesion: adenomatous polyp + carcinoma, dosed 27 weeks",8.54 mg/kg/day
same,TD50,"rat, strain Fischer 344, males, site: large intestine, lesion: adenomatous polyp, dosed 27 weeks",8.58 mg/kg/day
same,TD50,"rat, strain Fischer 344, males, site: large intestine, lesion: carcinoma, dosed 27 weeks",573 mg/kg/day
same,TD50,"rat, strain Fischer 344, males, site: liver, lesion: hepatocellular adenoma + hepatoblastoma + hepatocellular carcinoma, dosed 103 weeks",330 mg/kg/day
same,TD50,"rat, strain Fischer 344, males, site: preputial gland, lesion: carcinoma + carcinoma, bilateral, dosed 103 weeks",195 mg/kg/day
same,TD50,"rat, strain Fischer 344, males, site: rectum, lesion: adenomatous polyp, dosed 27 weeks",51.8 mg/kg/day
same,TD50,"rat, strain Fischer 344, males, site: testis, lesion: interstitial-cell adenoma, bilateral + interstitial-cell adenoma, dosed 103 weeks",21.3 mg/kg/day
same,TD50,"rat, strain Fischer 344, males, site: urinary bladder, lesion: sarcoma, dosed 27 weeks",292 mg/kg/day
same,TD50,"rat, strain Fischer 344, males, site: urinary bladder, lesion: squamous-cell carcinoma + squamous-cell papilloma, dosed 27 weeks",273 mg/kg/day
same,TD50,"rat, strain Fischer 344, males, site: urinary bladder, lesion: squamous-cell carcinoma, dosed 27 weeks",422 mg/kg/day
same,TD50,"rat, strain Fischer 344, males, site: urinary bladder, lesion: squamous-cell papilloma, dosed 27 weeks",482 mg/kg/day
same,TD50,"rat, strain Fischer 344, males, site: urinary bladder, lesion: transitional-cell carcinoma + transitional-cell papilloma, dosed 27 weeks",7.48 mg/kg/day
same,TD50,"rat, strain Fischer 344, males, site: urinary bladder, lesion: transitional-cell carcinoma, dosed 27 weeks",8.28 mg/kg/day
same,TD50,"rat, strain Fischer 344, males, site: urinary bladder, lesion: transitional-cell papilloma, dosed 27 weeks",75.6 mg/kg/day
